Test results published in patent US4146622A, “Aziridinyl quinone anti-transplanted tumor agents” (priority 1977, dated 1979).
Values after ≈ are worked out from the molar mass of the structure shown. Values joined by “and” are separate entries in the source; they are usually repeats but may differ in a detail not shown here. Equal values may be shown once. “Also recorded” adds a separate entry of the source.

Columns and labels:
[1] = test system: lymphoid leukemia L1210; assay: Intraperitoneal (IP) lymphoid leukemia L1210 transplanted mouse tumor test; type: in vivo, murine; details: for OD (optimum dose) / ILS (percentage increase in life span) / T - C (average weight change of test group minus control) / animals alive per 6 test animals on day of termination: Table VIII; for T - C (average weight change of test group minus control): day 5; for animals alive per 6 test animals on day of termination: day 30
From the text: ^(a) Day 1-9 treatment schedule (9 injections)
^(b) Day 1,5,9 treatment schedule (3 injections)
^(c) Day 1 only treatment schedule (1 injection)
^(f) Percentage increase in life span of treated animals [(treated
survival .div. control survival) × 100%] - 100%

[2] = test system: P388 lymphocytic leukemia; assay: Intraperitoneal (IP) lymphocytic leukemia P388 transplanted mouse tumor test; type: in vivo, murine; details: for OD (optimum dose): IP P388, QD1-9
From the text: (§1) ^b Ip tumor implantation, ip QD1-9 treatment schedule.
(§2) The L1210, P388 and B16 test systems described in Table II utilize intraperitoneal (IP) tumor implantation and IP drug treatment while the Lewis lung system employs subcutaneous tumor implantation and IP treatment.
(§3) Aqueous saline solution (0.9%) was used as the drug vehicle. Normally, five doses were employed per experiment with the top dose chosen to produce toxicity. The lower doses were 50% of each preceeding dose.
(§4) Consistent with NCI antitumor test protocols, intraperitoneal (IP) administration of the drug was employed with all five tumor systems investigated. Tumor implantation was IP in the systems designated IP leukemia L1210 and P388 as well as B16 melanoma.

[3] = test system: B16 melanocarcinoma; assay: Intraperitoneal B16 melanocarcinoma transplanted mouse tumor test; type: in vivo, murine; details: for OD (optimum dose) / ILS (percentage increase in life span): Table IX; for OD (optimum dose): B16, QD1-9; for ILS (percentage increase in life span): B16, QD1-9, at OD; for antitumor activity: B16 melanoma
From the text: as §1, §2, §3, §4

[4] = test system: ependymoblastoma; assay: Intracerebral (IC) ependymoblastoma (EM) brain tumor test; type: in vivo, murine; details: for OD (optimum dose) / animals alive per 6 test animals on day of termination / ILS (percentage increase in life span): Table X, IC ependymoblastoma; for OD (optimum dose): QD1-5; for antitumor activity: IC ependymoblastoma (EM); for animals alive per 6 test animals on day of termination / ILS (percentage increase in life span): QD1-5, at OD; for animals alive per 6 test animals on day of termination / survivors (number in parentheses) EM: day 60; for survivors (number in parentheses) EM: per 6 test animals
From the text: ^c Ic tumor implantation, ip QD1-5 treatment schedule.
^g Number of animals alive per six test animals on day of termination
of experiment (day 99 for expt 133 and day 60 for expt 136 and 144).
A third IC transplanted mouse tumor model, the ependymoblastoma system, was also studied. This system requires intracerebral implantation of a solid tumor fragment while the IC L1210 and IC P388 systems utilize IC inoculated ascites tumor fluid. All three use IP drug treatment however. […] Cures (survivors from the group of six mice on the last day of the experiment) are indicated. Experiments 136 and 144 were terminated on day 60. Since the number of cures was about the same, the differences in T/C values in these two experiments reflect differences in the life span of the two different sets of control animals. Experiment 133 was terminated on day 99 with a resulting higher activity value.
The hydrophilic dihydroxypropylamino compound (No. 39), which was curative in the IP L1210 and P388 leukemia systems, was active but gave a large spread in ILS values (53-186%). […] Again, its hydrophilic character may present transport problems in this IC tumor system.

[5] = Room temperature water solubility; type: physicochemical; details: water; Table VII; room temperature, approximate; read-out: Approx. H2O Sol.
Protocol: In the following examples, all melting points are uncorrected and were recorded on a Thomas-Hoover capillary melting point apparatus. Elemental analyses were performed by NIAMDD, NIH, Bethesda, Maryland. Fluoranil, ethyleneimine and 2l -methylethyleneimine were obtained commerically. […] New compounds were identified by nmr and ir spectroscopy. In the tetraamino derivatives, the methylene protons of the aziridine rings usually occurred as a singlet at δ2.0-2.2 in CDCl3 or DMSO-d6. This absorption appeared at δ2.40 (CDCl3) for compound 11. Carbonyl absorption frequencies (nujol mull) occurred in the range 1620-1640 cm^-1 for the tetraamino compounds. Satisfactory elemental analyses (+0.4% of calculated values) are indicated by elemental symbols in Table VII. Room temperature water solubilities were determined by the incremental addition (pipet) of water to a weighed amount of compound with shaking. The solubility values in Table VII must be considered as approximate.

[6] = test system: lymphoid leukemia L1210; assay: Intracerebral (IC) lymphoid leukemia L1210 test; type: in vivo, murine; details: for OD (optimum dose) / ILS (percentage increase in life span): Table X; for OD (optimum dose): IC L1210, QD1-9; for ILS (percentage increase in life span): IC L1210, QD1-9, at OD
From the text: ^b Ic tumor implantation, ip QD1-9 treatment schedule.
The L1210, P388 and B16 test systems described in Table II utilize intraperitoneal (IP) tumor implantation and IP drug treatment while the Lewis lung system employs subcutaneous tumor implantation and IP treatment. All three CNS tumor models (Table III) use intracerebral (IC) tumor implantation and IP treatment.
Consistent with NCI antitumor test protocols, intraperitoneal (IP) administration of the drug was employed with all five tumor systems investigated. Tumor implantation was IP in the systems designated IP leukemia L1210 and P388 as well as B16 melanoma. Intracerebral (IC) tumor implantation was utilized in the IC L1210 and ependymoblastoma tumor systems.

[7] = IP L1210, Day 1 only (1 injection)
[8] = IP L1210, Q4D(1,5,9) (3 injections)
[9] = Table IX, IP P388, QD1-9, at OD
[10] = IP L1210, tetraaminobenzoquinone series (Table VIII)
[11] = L1210 system, Q4D and QD1-9 schedules

Row | Compound | OD (optimum dose) [1, 8] | ILS (percentage increase in life span) ([1]; IP L1210, Q4D(1,5,9), at OD) | OD (optimum dose) ([1]; IP L1210, QD1-9 (9 injections)) | ILS (percentage increase in life span) [2, 9] | OD (optimum dose) [3] | ILS (percentage increase in life span) [3] | OD (optimum dose) [4] | solubility [5] [µg/mL] | ILS (percentage increase in life span) ([1]; IP L1210, QD1-9, at OD) | OD (optimum dose) ([2]; Table IX) | ILS (percentage increase in life span) [4] | antitumor activity [1, 11] | other results
1 | O=C1C(N2CCCC2)=C(N2CC2)C(=O)C(N2CCCC2)=C1N1CC1 [Compound 43, 2,5-Diaziridinyl-3,6-dipyrrolidino-1,4-benzoquinone] | 6.2 mg/kg/injection | 43% | 2.0 mg/kg/injection | 72% and 55% | 2.0 mg/kg/injection | 28% and 18% | 1.6 mg/kg/injection and 3.1 mg/kg/injection | 500 (≈ 1520 µM) |  |  |  |  | OD (optimum dose) [1, 7]: 4.0 mg/kg/injection and 2.0 mg/kg/injection; T - C (average weight change of test group minus control) ([1]; IP L1210, Q4D(1,5,9), at OD): -2.3 grams
2 | CNC1=C(N2CC2C)C(=O)C(NC)=C(N2CC2C)C1=O (centres unmarked) [Compound 26] | 12.5 mg/kg/injection | 93% and 52% | 5.0 mg/kg/injection |  | 5.0 mg/kg/injection | 70% and 48% | 10.0 mg/kg/injection and 5.0 mg/kg/injection | < 100 | 69% and 37% |  |  |  | OD (optimum dose) [1, 7]: 5.0 mg/kg/injection and 10.0 mg/kg/injection; ILS (percentage increase in life span) ([1]; IP L1210, Day 1 only, at OD): 42% and 39%; antitumor activity [3]: active; ILS (%) B16 ([3]; Table XI, outstanding activity): 70%; OD (optimum dose) [6]: 5.0 mg/kg/injection and 10.0 mg/kg/injection; ILS (percentage increase in life span) [6]: 39% and 25%; antitumor activity [4]: highly active; animals alive per 6 test animals on day of termination [4]: 1; ILS (%) EM ([4]; Table XI, outstanding activity): 294%; survivors (number in parentheses) EM ([4]; Table XI): 1
3 | CNC1=C(N2CC2)C(=O)C(NC)=C(N2CC2)C1=O [Compound 34] | 0.8 mg/kg/injection and 0.4 mg/kg/injection |  | 0.2 mg/kg/injection | 95% and 69% |  | 39% and 29% | 0.2 mg/kg/injection and 0.4 mg/kg/injection | < 100 |  | 0.2 mg/kg/injection and 0.1 mg/kg/injection | 219% and 218% |  | OD (optimum dose) [1, 7]: 0.7 mg/kg/injection; animals alive per 6 test animals on day of termination ([1]; IP L1210, QD1-9, at OD): 1; antitumor activity [3]: approached minimal reproducible activity; antitumor activity ([6]; IC L1210): most active; also recorded: significant activity; OD (optimum dose) [6]: 0.4 mg/kg/injection and 0.2 mg/kg/injection; ILS (percentage increase in life span) [6]: 68% and 60%; ILS (%) IC L1210 ([6]; Table XI, outstanding activity): 68%; antitumor activity [4]: among the most active materials; also recorded: highly active; animals alive per 6 test animals on day of termination [4]: 5 and 4; survivors (number in parentheses) EM ([4]; Table XI): 5
4 | O=C1C(N2CC2)=C(N2CCCC(O)C2)C(=O)C(N2CC2)=C1N1CCCC(O)C1 (centres unmarked) [Compound 45] | 6.0 mg/kg/injection and 4.0 mg/kg/injection | 104% and 84% | 3.0 mg/kg/injection | 95% and 78% | 1.0 mg/kg/injection | 40% and 37% |  | 1000 (≈ 2570 µM) | 59% and 44% | 1.0 mg/kg/injection | 64% and 48% |  | animals alive per 6 test animals on day of termination ([1]; IP L1210, Q4D(1,5,9), at OD): 2; antitumor activity [3]: approached minimal reproducible activity
5 | O=C1C(N2CCCCC2)=C(N2CC2)C(=O)C(N2CCCCC2)=C1N1CC1 [Compound 44] |  | 26% and 22% | 10.0 mg/kg/injection | 46% and 77% | 5.0 mg/kg/injection and 2.5 mg/kg/injection |  |  | < 100 | 28% | 5.0 mg/kg/injection and 10.0 mg/kg/injection | 68% and 46% |  | ILS (percentage increase in life span) ([1]; IP L1210, Day 1 only, at OD): 16% and 8%; T - C (average weight change of test group minus control) ([1]; IP L1210, QD1-9, at OD): -2.2 grams
6 | CCCNC1=C(N2CC2)C(=O)C(NCCC)=C(N2CC2)C1=O [Compound 36] | 6.2 mg/kg/injection | 28% and 25% | 6.2 mg/kg/injection | 151% and 108% | 5.0 mg/kg/injection | 36% and 32% | 10.0 mg/kg/injection and 5.0 mg/kg/injection | < 100 | 48% and 43% | 6.0 mg/kg/injection | 259% and 143% |  | antitumor activity [1, 10]: significant reduction in activity; animals alive per 6 test animals on day of termination ([2]; Table IX, IP P388, QD1-9, at OD, day 30): 2; survivors (number in parentheses) P388 ([2]; Table XI, per 6 test animals, day 30): 2; antitumor activity [4]: highly active; also recorded: still very active; also recorded: most active; animals alive per 6 test animals on day of termination [4]: 2 and 1; survivors (number in parentheses) EM ([4]; Table XI): 2
7 | CCSC1=C(N2CC2)C(=O)C(SCC)=C(N2CC2)C1=O [Compound 5] |  |  |  |  |  |  |  |  |  |  |  | the activity was not reproducible | activity (%ILS) ([1]; IP L1210, Q4D schedule): 30%
8 | O=C1C(F)=C(N2CC2)C(=O)C(N2CCOCC2)=C1N1CC1 [Compound 31, 2,5-diaziridinyl-3-fluoro-5-morpholino-1,4-benzoquinone] |  |  |  | 57% and 54% | 0.7 mg/kg/injection | 18% and 9% | 0.8 mg/kg/injection and 1.5 mg/kg/injection | 2000 (≈ 6820 µM) |  | 3.0 mg/kg/injection and 6.0 mg/kg/injection | 49% and 40% |  | antitumor activity ([2]; IP P388): active
9 | CCCSC1=C(N2CC2)C(=O)C(SCCC)=C(N2CC2)C1=O [Compound 6] |  |  |  |  |  |  |  |  |  |  |  | inactive | 
10 | CCOC(=O)NC1=C(N2CC2C)C(=O)C(NC(=O)OCC)=C(N2CC2C)C1=O (centres unmarked) [Compound 10] |  |  |  |  |  |  |  |  |  |  |  | abolished activity | 
11 | CCOC(=O)NC1=C(N2CC2(C)C)C(=O)C(NC(=O)OCC)=C(N2CC2(C)C)C1=O [Compound 11] |  |  |  |  |  |  |  |  |  |  |  | abolished activity | 
12 | CCCCNC1=C(N2CC2)C(=O)C(NCCCC)=C(N2CC2)C1=O [Compound 37] | 12.5 mg/kg/injection and 8.2 mg/kg/injection | 44% and 25% | 10.0 mg/kg/injection and 5.0 mg/kg/injection | 64% and 49% | 10.0 mg/kg/injection and 5.0 mg/kg/injection |  | 6.0 mg/kg/injection and 3.0 mg/kg/injection | < 100 | 36% and 30% | 5.0 mg/kg/injection and 10.0 mg/kg/injection |  |  | antitumor activity [1, 10]: significant reduction in activity; OD (optimum dose) [1, 7]: 10.0 mg/kg/injection; ILS (percentage increase in life span) ([1]; IP L1210, Day 1 only, at OD): 11% and 5%; antitumor activity [4]: has activity
13 | CC(=O)NC1=C(N2CC2(C)C)C(=O)C(NC(C)=O)=C(N2CC2(C)C)C1=O [Compound 21] |  |  |  |  |  |  |  |  |  |  |  | abolished activity | 
14 | CCOC(=O)NC1=C(NCCCl)C(=O)C(NC(=O)OCC)=C(NCCCl)C1=O [Compound 12] |  |  |  |  |  |  |  |  |  |  |  | activity was abolished | 
